Data from patent EP0312245A2, “Polycyclic compounds and pharmaceutical compositions thereof” (NORISTAN HOLDINGS LIMITED, priority 1987, dated 1989).
Like-named read-outs stand apart in the source and are kept apart here.

Assays:
[1] = test system: guinea-pig papillary muscle; experiment: Electrophysiological test: action potential of guinea-pig papillary muscle (microelectrode technique); settings: for TIME 1 (Shortest time needed to attain suppression) / TIME 2 (Shortest time needed for reversal of effect by washing out of compound): at the listed bath concentration; for DEGREE OF SUPPRESSION: suppression of action potential at the listed bath concentration; for minimal effective concentration: Cavia porcellus
Experimental: Electrophysiological studies were conducted on guinea-pig papillary muscle.
Using a microelectrode technique, action potentials were measured from guinea-pig papillary muscles. Action potentials were evoked by electrical stimulation (platinum electrode, Grass S88 stimulator, 1 Hz stimulation frequency; voltage, 10% above threshold). […] The preparations were electrically driven (pacing intervals 1 s, duration 2-5 ms). Slow (Ca2+ mediated) action potentials were evoked in a depolarizing solution (22 mmol/l K and 5 mmol/I Ca^2+) at 0,35 Hz stimulation frequency in order to ensure complete removal of inactivation of slow inward current.

[2] = test system: isolated rabbit ear preparation; experiment: Rabbit ear perfusion test (adrenaline-induced tone, perfusion pressure)
Experimental: Female New Zealand White rabbits (approximately 4kg) were anaesthetised with Sagatal ® (0.5ml/kg).
The central ear artery was cannulated using a 20 G catheter and the ear cut off at its base. Heparinised (5ml, 200 IU;ml) Krebs bicarbonate solution was perfused through the ear to expel the blood. The ear was placed in a warming jacket at 37°C and attached via the arterial catheter to the perfusion pump. Perfusion of the ear with aerated (95% 025% C02)Krebs bicarbonate solution at 37° C was commenced at a rate of 6.5ml/min using a Watson Marlow peristaltic pump. The perfusion pressure was monitored continuously using a pressure transducer (Type 4-327-1221, Consoliated Electrodynamics) coupled to a Devices Recorder.
Following an equilibration period of 15 minutes, increased tone was induced in the preparation by addition of adrenaline (1µg/ml) to the perfusion fluid.
After a stable tone was observed, various concentrations of test compounds were injected into the perfusion fluid and examined for their effect on the perfusion pressure. The effect of vehicle (0.2ml, 50% Krebs 50% ethanol) was also tested on the ear preparation.

[3] = read-out: BATH CONCENTRATION (Lowest concentration of the compound to induce suppression of action potential), Table 3, guinea-pig papillary muscle
[4] = read-out: BATH CONCENTRATION (Lowest concentration of the compound to induce suppression of action potential), Table 4, racemates and optical isomers
[5] = Oryctolagus cuniculus, Table 5, dose 100 µg, read-out: Mean % change in perfusion pressure
[6] = Oryctolagus cuniculus, Table 5, dose 316 µg, read-out: Mean % change in perfusion pressure
[7] = Oryctolagus cuniculus, Table 5, dose 1000 µg, read-out: Mean % change in perfusion pressure
[8] = Oryctolagus cuniculus, Table 5, dose 3160 µg, read-out: Mean % change in perfusion pressure

Compound | TIME 1 (Shortest time needed to attain suppression) ([1]; Table 3) [min] | TIME 2 (Shortest time needed for reversal of effect by washing out of compound) ([1]; Table 3) [min] | DEGREE OF SUPPRESSION ([1]; Table 3) | TIME 1 (Shortest time needed to attain suppression) ([1]; Table 4) [min] | DEGREE OF SUPPRESSION ([1]; Table 4) | also measured
1 (or7)-Methyl-8-(3-phenylpropyl)-amino-8,11-oxopentacyclo[5.4.0.0^2,6.0^3,10.0^5,9 ]undecane [Compound 12] | 12 | 20 | complete | – | – | –
1(or7)-Methyl-8-(2-phenylethyl)-amino-8,11-oxopentacyclo [5.4.0.0^2,6.0^3,1.0^5,9 ]undecane [Compound 11] | 32 | 35 | partial | – | – | –
1(or7)-Methyl-8-benzylamino-8,11-oxopentacyclo [5.4.0.0^2,6.0^3,10.0^5,9 ]undecane [Compound 10] | 20 | 10 | complete | – | – | –
1(or7)-Methyl-8-η-butylamino-8,11-oxopentacyclo[5.4.0.0^2,6.0^3,10.0^5,9]undecane [Compound 8] | 22 | 6 | complete | – | – | –
1(or 7)-Methyl-8-methylamino-8,11-oxopentacyclo[5.4.0.0^2,6.0^3,10.0^5,9] undecane [Compound 7] | 12 | – | very little | – | – | –
CNC12OC3C4C5CC(C6C5C3C61)C42 (racemic) [Compound 1, 8-Methylamino-8,11-oxopentacyclo[5.4.0.0^2,6 .0^3,10 .0^5,9]-undecane] | 25 | – | very little | – | – | minimal effective concentration [1, 3]: 120 µM
CCCCNC12OC3C4C5CC(C6C5C3C61)C42 (racemic) [Compound 2, 8-η-Butylamino-8,11-oxopentacyclo[5.4.0.0^2,6 .0^3,10 .0^5,9]undecane] | 29 | – | very little | 25 | little | minimal effective concentration [1, 3]: 150 µM; minimal effective concentration [1, 4]: 150 µM; inhibition at 0.1 mg [2, 5]: 7.5%; inhibition at 0.316 mg [2, 6]: 8%; inhibition at 1 mg [2, 7]: 12%; inhibition at 3.16 mg [2, 8]: 26%; Mean time taken to return to pre-dose volume ([2]; Table 5, dose 1000 µg): 5.5 min; Mean time taken to return to pre-dose volume ([2]; Table 5, dose 3160 µg): 5.75 min
c1ccc(CNC23OC4C5C6CC(C7C6C4C72)C53)cc1 (racemic) [Compound 4, 8-Benzylamino-8,11-oxopentacyclo[5.4.0.0^2,6 .0^3,10 .0^5,9]undecane] | 15 | 10 | complete | 15 | complete | minimal effective concentration [1, 3]: 20 µM; minimal effective concentration [1, 4]: 20 µM; TIME 2 (Shortest time needed for reversal of effect by washing out of compound) ([1]; Table 4): 10 min
c1ccc(CCCNC23OC4C5C6CC(C7C6C4C72)C53)cc1 (racemic) [Compound 6, 8-(3-Phenylpropyl)-amino-8,11-oxopentacyclo [5.4.0.0^2,6.0^3,10.0^5,9] undecane] | 18 | 14 | complete | – | – | minimal effective concentration [1, 3]: 50 µM
CCNC12OC3C4C5CC(C6C5C3C61)C42 (racemic) [Compound 13, 8-Ethylamino-8,11-oxopentacyclo [5.4.0.0^2,6.0^3,10.0^5,9]undecane] | – | – | – | – | – | inhibition at 0.1 mg [2, 5]: 6%; inhibition at 0.316 mg [2, 6]: 7%; inhibition at 1 mg [2, 7]: 5.5%; inhibition at 3.16 mg [2, 8]: 11.5%; Mean time taken to return to pre-dose volume ([2]; Table 5, dose 3160 µg): 2.0 min
CCCCCCCCCCCCNC12OC3C4C5CC(C6C5C3C61)C42 (racemic) [Compound 14, 8-η -Dodecylamino-8,11-oxopentacyclo [5.4.0.0^2,6.0^3,10.0^5,9]undecane] | – | – | – | – | – | inhibition at 0.0316 mg ([2]; Oryctolagus cuniculus, Table 7, dose 31.6 μg, read-out: Mean % change in perfusion pressure): 6.1%; inhibition at 0.1 mg ([2]; Oryctolagus cuniculus, Table 7, dose 100 μg, read-out: Mean % change in perfusion pressure): 12.4%; inhibition at 0.316 mg ([2]; Oryctolagus cuniculus, Table 7, dose 316 μg, read-out: Mean % change in perfusion pressure): 8.7%; inhibition at 1 mg ([2]; Oryctolagus cuniculus, Table 7, dose 1000 μg, read-out: Mean % change in perfusion pressure): 6.6%; inhibition at 3.16 mg ([2]; Oryctolagus cuniculus, Table 7, dose 3160 μg, read-out: Mean % change in perfusion pressure): 7.7%
CC(C)CNC12OC3C4C5CC(C6C5C3C61)C42 (racemic) [Compound 15, 8-Isobutylamino-8,11-oxopentacyclo [5.4.0.0^2,60^3,10.0^5,9]-undecane] | – | – | – | – | – | inhibition at 0.1 mg [2, 5]: 6.5%; inhibition at 0.316 mg [2, 6]: 8.5%; inhibition at 1 mg [2, 7]: 7%; inhibition at 3.16 mg [2, 8]: 21%; Mean time taken to return to pre-dose volume ([2]; Table 5, dose 3160 µg): 2.5 min
CCCCNC12OC3C4C5CC(C6C5C3C61)C42 (single isomer, unassigned) [(+) -2, 8-η -butylamino-8,11-oxopentacyclo [5.4.0.0^2,6.0^3,10.0^5,9] undecane] | – | – | – | 25 | very little | –
CCCCCCCCNC12OC3C4C5CC(C6C5C3C61)C42 (single isomer, unassigned) [(+) -3, 8-η -octylamino-8,11-oxopentacyclo [5.4.0.0^2,6.0^3,10.0^5,9]undecane] | – | – | – | 30 | incomplete | TIME 2 (Shortest time needed for reversal of effect by washing out of compound) ([1]; Table 4): 11 min
c1ccc(CNC23OC4C5C6CC(C7C6C4C72)C53)cc1 (single isomer, unassigned) [(+) -4, 8-benzylamino-8,11-oxopentacyclo [5.4.0.0^2,6.0^3,10.0^5,9]undecane] | – | – | – | 20 | complete | TIME 2 (Shortest time needed for reversal of effect by washing out of compound) ([1]; Table 4): 15 min
CCCCNC12OC3C4C5CC(C6C5C3C61)C42 (single isomer, unassigned) [(-) -2, 8-η -butylamino-8,11-oxopentacyclo [5.4.0.0^2,6.0^3,10.0^5,9] undecane] | – | – | – | 25 | little | minimal effective concentration [1, 4]: 130 µM
CCCCCCCCNC12OC3C4C5CC(C6C5C3C61)C42 (single isomer, unassigned) [(-) -3, 8-η -octylamino-8,11-oxopentacyclo [5.4.0.0^2,6.0^3,10.0^5,9]undecane] | – | – | – | 10 | complete | TIME 2 (Shortest time needed for reversal of effect by washing out of compound) ([1]; Table 4): 7 min
c1ccc(CNC23OC4C5C6CC(C7C6C4C72)C53)cc1 (single isomer, unassigned) [(-) -4, 8-benzylamino-8,11-oxopentacyclo [5.4.0.0^2,6.0^3,10.0^5,9]undecane] | – | – | – | 10 | complete | minimal effective concentration [1, 4]: 56.6 µM; TIME 2 (Shortest time needed for reversal of effect by washing out of compound) ([1]; Table 4): 5 min
COc1ccc(CCN(C)CCCC(C#N)(c2ccc(OC)c(OC)c2)C(C)C)cc1OC (stereo not drawn) [Verapamil, reference compound] | 10 | 15 | complete | – | – | minimal effective concentration [1, 3]: 40 µM
